Source: the supplement of paper PMC10307832

What was measured:
Assay in all cases: relative viability (nuclei count vs DMSO), 5 days (fraction); higher = more cells survive
Imatinib = compound: Cc1ccc(NC(=O)c2ccc(CN3CCN(C)CC3)cc2)cc1Nc1nccc(-c2cccnc2)n1 [Imatinib]
How it was run: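 Five library-drug doses, separated by factors of √10, were pinned into 1536-well plates holding lung cancer cell lines after an overnight stay at 37 °C. Cells were fixed, permeabilised and Hoechst-stained in one step after 5 days without medium change, then imaged at 4×. Viability compares treated-well with vehicle-well nuclei, counted in MetaXpress, as a median across plates. Passing plates had control CV below 25% and at least one doubling.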

Imatinib + Palbociclib = compound: Cc1ccc(NC(=O)c2ccc(CN3CCN(C)CC3)cc2)cc1Nc1nccc(-c2cccnc2)n1 [Imatinib] + CC(=O)c1c(C)c2cnc(Nc3ccc(N4CCNCC4)cn3)nc2n(C2CCCC2)c1=O [Palbociclib] (partner 0.5 µM)
How it was run: (§1)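 Lung cancer cell lines in 1536-well plates got either a single drug or a fixed anchor-drug dose together with five library-drug doses (not always all listed) in √10 steps, by pin tool, on the day after seeding. Nuclei were counted after 5 days, and relative viability is the treated-to-vehicle ratio of nuclei counts. Values are medians of duplicate plates.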

Imatinib + Luminespib = compound: Cc1ccc(NC(=O)c2ccc(CN3CCN(C)CC3)cc2)cc1Nc1nccc(-c2cccnc2)n1 [Imatinib] + CCNC(=O)c1noc(-c2cc(C(C)C)c(O)cc2O)c1-c1ccc(CN2CCOCC2)cc1 [Luminespib] (partner 0.01 µM)
How it was run: as §1

Imatinib + OSI-027 = compound: Cc1ccc(NC(=O)c2ccc(CN3CCN(C)CC3)cc2)cc1Nc1nccc(-c2cccnc2)n1 [Imatinib] + COc1cccc2cc(-c3nc([C@H]4CC[C@H](C(=O)O)CC4)n4ncnc(N)c34)[nH]c12 [OSI-027] (partner 0.5 µM)
How it was run: as §1

Cell Line	relative viability (Imatinib; 0.02 µM)	relative viability (Imatinib; 0.06325 µM)	relative viability (Imatinib; 0.2 µM)	relative viability (Imatinib; 0.6325 µM)	relative viability (Imatinib; 2 µM)	relative viability (Imatinib + Palbociclib; first compound 0.02 µM)	relative viability (Imatinib + Palbociclib; first compound 0.06325 µM)	relative viability (Imatinib + Palbociclib; first compound 0.2 µM)	relative viability (Imatinib + Palbociclib; first compound 0.6325 µM)	relative viability (Imatinib + Palbociclib; first compound 2 µM)	relative viability (Imatinib + Luminespib; first compound 0.02 µM)	relative viability (Imatinib + Luminespib; first compound 0.06325 µM)	relative viability (Imatinib + Luminespib; first compound 0.2 µM)	relative viability (Imatinib + Luminespib; first compound 0.6325 µM)	relative viability (Imatinib + Luminespib; first compound 2 µM)	relative viability (Imatinib + OSI-027; first compound 0.02 µM)	relative viability (Imatinib + OSI-027; first compound 0.06325 µM)	relative viability (Imatinib + OSI-027; first compound 0.2 µM)	relative viability (Imatinib + OSI-027; first compound 0.6325 µM)	relative viability (Imatinib + OSI-027; first compound 2 µM)
NCI-H520	1.11	1.15	0.907	0.882	0.938	0.25	0.21	0.198	0.242	0.213	0.21	0.236	0.23	0.189	0.198	0.214	0.255	0.242	0.224	0.273
NCI-H647	0.976	1.05	1.12	0.991	0.962	0.532	0.39	0.402	0.375	0.407	0.198	0.121	0.134	0.119	0.146	0.621	0.693	0.704	0.626	0.562
NCI-H650	1	0.779	1.02	1.1	0.824	0.303	0.356	0.353	0.349	0.298	0.887	0.67	0.641	0.796	0.769	0.557	0.496	0.51	0.544	0.459
NCI-H661	0.977	0.962	0.994	0.969	0.982	0.428	0.368	0.393	0.394	0.412	0.931	1.03	1.01	0.934	0.874	0.738	0.818	0.802	0.645	0.695
NCI-H727	0.818	0.676	0.957	1.08	0.938	0.577	–	0.599	0.569	0.601	0.319	–	0.242	0.323	0.31	0.455	0.476	0.519	0.773	0.551
NCI-H838	1.03	1.09	–	1	1.01	0.254	0.255	0.241	0.254	0.247	0.33	0.3	0.363	0.275	0.266	0.407	0.389	0.406	0.407	0.421
NCI-H1395	1.13	–	0.897	0.976	0.938	0.622	–	0.579	0.526	0.589	0.79	0.697	0.653	0.737	0.676	0.63	0.443	0.705	0.581	0.606
NCI-H1437	1.11	–	1.12	1.04	0.957	0.329	0.288	0.324	0.343	0.266	1.25	1.18	1.28	1.22	1.08	0.998	0.945	–	0.911	0.891
NCI-H1650	0.919	0.778	1.03	0.922	0.993	0.341	0.344	0.342	0.295	0.301	0.189	0.2	0.184	0.192	0.193	0.629	0.481	0.39	0.544	0.512
NCI-H1651	1.1	0.876	1.03	0.967	0.948	0.478	0.543	0.564	0.492	0.543	0.926	0.829	0.947	0.749	0.83	–	0.848	0.727	0.739	0.665
NCI-H1734	1.04	–	1.09	0.996	0.876	0.348	–	0.402	0.346	0.351	0.194	0.204	0.181	0.177	0.233	0.656	0.54	0.64	0.609	0.5
NCI-H1755	1.08	0.988	–	0.958	1.01	0.438	0.496	0.436	0.429	0.423	0.402	0.371	0.273	0.454	0.418	0.748	0.554	0.829	0.634	0.594
NCI-H1792	0.946	0.921	1.03	0.948	0.87	0.608	0.542	0.655	0.573	0.736	0.519	0.321	0.432	0.447	0.365	0.84	0.549	0.697	0.162	0.673
NCI-H1793	0.939	–	1.11	0.884	0.909	0.293	–	0.315	0.291	0.307	0.253	–	0.164	0.167	0.189	0.298	–	0.263	0.249	0.204
NCI-H1915	1.09	–	1.02	1.03	0.967	0.523	–	0.556	0.456	0.518	1.1	–	0.694	0.637	0.766	0.61	–	0.67	0.6	0.599
NCI-H1944	0.974	0.706	0.977	0.969	0.951	0.347	0.306	0.373	0.316	0.42	0.831	0.655	–	0.665	0.787	0.423	0.267	0.403	0.425	0.381
NCI-H1975	1.04	0.951	0.94	0.964	0.94	0.662	0.49	0.566	0.631	0.563	0.254	0.191	0.201	0.178	0.274	0.843	0.772	0.827	0.579	0.549

Cell Line	relative viability (Imatinib; 0.02 µM)	relative viability (Imatinib; 0.06325 µM)	relative viability (Imatinib; 0.2 µM)	relative viability (Imatinib; 0.6325 µM)	relative viability (Imatinib; 2 µM)	relative viability (Imatinib + Palbociclib; first compound 0.02 µM)	relative viability (Imatinib + Palbociclib; first compound 0.06325 µM)	relative viability (Imatinib + Palbociclib; first compound 0.2 µM)	relative viability (Imatinib + Palbociclib; first compound 0.6325 µM)	relative viability (Imatinib + Palbociclib; first compound 2 µM)	relative viability (Imatinib + Luminespib; first compound 0.02 µM)	relative viability (Imatinib + Luminespib; first compound 0.06325 µM)	relative viability (Imatinib + Luminespib; first compound 0.2 µM)	relative viability (Imatinib + Luminespib; first compound 0.6325 µM)	relative viability (Imatinib + Luminespib; first compound 2 µM)	relative viability (Imatinib + OSI-027; first compound 0.02 µM)	relative viability (Imatinib + OSI-027; first compound 0.06325 µM)	relative viability (Imatinib + OSI-027; first compound 0.2 µM)	relative viability (Imatinib + OSI-027; first compound 0.6325 µM)	relative viability (Imatinib + OSI-027; first compound 2 µM)
NCI-H1993	0.89	0.8	1.08	0.886	0.925	0.684	0.677	0.674	0.723	0.699	0.949	0.745	0.885	0.608	0.854	0.538	0.491	0.617	0.543	0.625
NCI-H2009	1.08	0.728	1.09	1.05	0.977	0.202	0.157	0.194	0.2	0.203	1.15	–	0.888	1.08	0.934	0.666	–	0.672	0.623	0.582
NCI-H2023	1.06	0.78	1.14	–	0.985	0.537	0.494	0.387	–	0.345	1.04	1.03	1.07	1.17	1.1	0.524	0.303	0.426	0.314	0.334
NCI-H2085	–	0.826	1.01	1.04	1.02	0.447	0.45	0.506	0.481	0.47	0.548	0.628	0.421	0.463	0.541	0.823	0.432	0.717	0.724	0.588
NCI-H2087	1.11	–	1.13	1.16	–	0.192	–	0.188	0.243	–	0.205	–	0.155	0.159	0.25	0.601	–	0.643	0.618	0.572
NCI-H2126	1.02	0.696	1.08	0.955	0.936	0.375	0.352	0.37	0.368	0.321	0.955	–	0.979	–	0.959	0.851	0.68	0.673	0.604	0.678
NCI-H2170	0.987	0.955	1.05	0.961	1.01	0.399	0.438	0.431	0.408	0.382	0.901	0.395	0.526	0.502	0.735	0.67	0.602	0.769	0.584	0.625
NCI-H2228	–	0.927	1.33	–	1.08	1.06	0.73	0.664	0.916	0.697	0.147	–	0.126	0.12	0.152	0.755	–	0.489	0.423	0.478
NCI-H2342	0.896	0.891	0.972	0.943	0.998	0.506	0.586	0.504	0.503	0.539	0.787	0.757	0.728	0.649	0.715	0.667	0.539	0.636	0.596	0.665
NCI-H2347	1.09	0.825	1.13	1.07	0.977	0.498	–	0.425	0.424	0.405	0.499	0.425	0.431	0.475	0.608	0.287	0.384	0.318	0.442	0.426
NCI-H2405	–	0.721	1.02	0.927	1	0.534	0.57	0.533	0.493	0.572	0.682	–	0.575	0.58	0.76	0.629	–	0.645	0.592	0.641
NCI-H3122	1.02	–	1.1	1.03	1.08	0.194	0.19	0.199	0.192	0.205	0.0854	0.0818	0.112	0.126	0.076	1.11	0.831	1.09	–	1.1
PC-3 [JPC-3]	1.07	–	1.09	1.11	0.972	0.581	–	–	0.763	0.539	0.764	–	0.705	0.704	0.734	0.792	–	0.854	0.877	0.711
PC-14	1.08	0.726	1.17	1	0.953	0.655	0.633	0.558	0.524	0.542	0.16	–	0.232	–	0.165	0.991	0.282	0.856	0.76	0.833
RERF-LC-KJ	1.1	0.884	1.06	0.985	0.953	1.11	1.23	1.07	0.981	1.09	1.27	1.3	1.3	1.03	1.31	0.598	0.418	0.544	0.492	0.551
SK-LU-1	1.08	–	1.15	–	1.11	0.427	0.427	0.418	0.34	0.425	0.212	0.222	0.201	0.243	0.188	0.332	0.409	0.319	0.264	0.365
SK-MES-1	–	1.05	1.21	1.01	1.04	0.318	0.336	0.321	0.316	0.294	0.906	–	0.804	0.714	0.873	0.717	0.407	0.642	0.521	0.597
